Tested on: male SD rats
Assay: Rat 33P phosphate oral challenge test (intestinal phosphate absorption suppression test)
Type: in vivo
Details: fasted, 30 mg/kg forcible oral administration, 33P phosphate solution given 30 min later, serum radioactivity AUC0-60min versus control group
Protocol: (Test Example) Rat ^33P Phosphate Oral Challenge Test (Intestinal Phosphate Absorption Suppression Test)
Using male SD rats (5-7 week old) that had been fasted on the previous day, the compound described in Examples was suspended or dissolved in a solvent such as 0.5% methyl cellulose (3-6 mg/mL), and the thus obtained solution was administered to each rat at a dose of 30 mg/kg by a forcible oral administration. On the other hand, regarding a control group, the solvent was administered to each rat at a dose of 5 mL/kg. Thirty minutes after the administration, a ^33P phosphate solution (8.3 mM NaH2PO4, 0.35 MBq/mL) was administered to the rats at a dose of 7.2 mL/kg by a forcible oral administration. Then, 15, 30, 60, and 120 minutes after the administration, blood was collected from the jugular vein of each rat under anesthesia with isoflurane. The radioactivity in 50 μL of serum was measured using a liquid scintillation counter, and the AUC0-60min was then calculated from the radioactivity value. The obtained value was defined as an amount of phosphate absorbed. The phosphate absorption-inhibiting activity of the compound was calculated according to the following expression. Phosphate absorption-inhibiting activity (%)=[[…]the amount of phosphate absorbed of the control group]×100

Compound | Phosphorus absorption-inhibiting activity (%)
O=C([O-])c1ccc(CCc2ccc(NC(=O)c3cc(N4CCCCC4)ccc3NC(=O)c3cccc(S(=O)(=O)N(C4CC4)[C@H]4CC[C@H](C(=O)[O-])CC4)c3)cc2)cc1.[K+].[K+] [Example 27, Dipotassium 4-[2-(4-{[2-({3-[(trans-4-carboxylatocyclohexyl)(cyclopropyl)sulfamoyl]benzoyl}amino)-5-(piperidin-1-yl)benzoyl]amino}phenyl)ethyl]benzoate] | 57
CCN([C@H]1CC[C@H](C(=O)O)CC1)S(=O)(=O)c1cccc(C(=O)Nc2ccc(OCC3CC3)cc2C(=O)Nc2ccc(CCc3ccc(C(=O)O)cc3)cc2)c1 [Example 30, Disodium 4-[2-(4-{[2-({3-[(trans-4-carboxylatocyclohexyl)(ethyl)sulfamoyl]benzoyl}amino)-5-(cyclopropylmethoxy)benzoyl]amino}phenyl)ethyl]benzoate] | 69
CCN([C@H]1CC[C@@H](C(=O)O)CC1)S(=O)(=O)c1cccc(C(=O)Nc2ccc(N3CCCCC3)cc2C(=O)Nc2ccc(CCc3ccc(C(=O)O)cc3)cc2)c1 [Example 26, Dipotassium 4-[2-(4-{[2-({3-[(cis-4-carboxylatocyclohexyl)(ethyl)sulfamoyl]benzoyl}amino)-5-(piperidin-1-yl)benzoyl]amino}phenyl)ethyl]benzoate] | 60
CCN(CC)c1ccc(NC(=O)c2cccc(S(=O)(=O)N(CC)[C@H]3CC[C@H](C(=O)[O-])CC3)c2)c(C(=O)Nc2ccc(CCc3ccc(C(=O)[O-])cc3)cc2)c1.[Na+].[Na+] [Example 29, Disodium 4-[2-(4-{[2-({3-[(trans-4-carboxylatocyclohexyl)(ethyl)sulfamoyl]benzoyl}amino)-5-(diethylamino)benzoyl]amino}phenyl)ethyl]benzoate] | 72
CCN([C@H]1CC[C@H](C(=O)[O-])CC1)S(=O)(=O)c1cccc(C(=O)Nc2ccc(N3CCCCC3)cc2C(=O)Nc2ccc(CCc3ccc(C(=O)[O-])cc3)cc2)c1.[Na+].[Na+] [Example 28, Disodium 4-[2-(4-{[2-({3-[(trans-4-carboxylatocyclohexyl)(ethyl)sulfamoyl]benzoyl}amino)-5-(piperidin-1-yl)benzoyl]amino}phenyl)ethyl]benzoate] | 60
CCN(CC)c1ccc(NC(=O)c2cccc(S(=O)(=O)N(CC)[C@H]3CC[C@H](C(=O)O)CC3)c2)c(C(=O)Nc2ccc(CCc3ccc(C(=O)O)cc3)cc2)c1 [Example 14, Dipotassium 4-[2-(4-{[2-({3-[(trans-4-carboxylatocyclohexyl)(ethyl)sulfamoyl]benzoyl}amino)-5-(diethylamino)benzoyl]amino}phenyl)ethyl]benzoate] | 76
CCN([C@H]1CC[C@H](C(=O)O)CC1)S(=O)(=O)c1cccc(C(=O)Nc2ccc(Br)cc2C(=O)Nc2ccc(CCc3ccc(C(=O)O)cc3)cc2)c1 [Example 4, Dipotassium 4-[2-(4-{[5-bromo-2-({3-[(trans-4-carboxylatocyclohexyl)(ethyl)sulfamoyl]benzoyl}amino)benzoyl]amino}phenyl)ethyl]benzoate] | 42
CCN([C@H]1CC[C@H](C(=O)[O-])CC1)S(=O)(=O)c1cccc(C(=O)Nc2ccc(OCC3CC3)cc2C(=O)Nc2ccc(CCc3ccc(C(=O)[O-])cc3)cc2)c1.[K+].[K+] [Example 15, Dipotassium 4-[2-(4-{[2-({3-[(trans-4-carboxylatocyclohexyl)(ethyl)sulfamoyl]benzoyl}amino)-5-(cyclopropylmethoxy)benzoyl]amino}phenyl)ethyl]benzoate] | 82
CCN([C@H]1CC[C@H](C(=O)[O-])CC1)S(=O)(=O)c1cccc(C(=O)Nc2ccc(N3CCCC3)cc2C(=O)Nc2ccc(CCc3ccc(C(=O)[O-])cc3)cc2)c1.[K+].[K+] [Example 10, Dipotassium 4-[2-(4-{[2-({3-[(trans-4-carboxylatocyclohexyl)(ethyl)sulfamoyl]benzoyl}amino)-5-(pyrrolidin-1-yl)benzoyl]amino}phenyl)ethyl]benzoate] | 53
CCN([C@H]1CC[C@H](C(=O)O)CC1)S(=O)(=O)c1cccc(C(=O)Nc2ccc(N3CCCCC3)cc2C(=O)Nc2ccc(CCc3ccc(C(=O)O)cc3)cc2)c1 [Example 12, Dipotassium 4-[2-(4-{[2-({3-[(trans-4-carboxylatocyclohexyl)(ethyl)sulfamoyl]benzoyl}amino)-5-(piperidin-1-yl)benzoyl]amino}phenyl)ethyl]benzoate] | 79
